Data taken from patent US11318141B2, “Methods and compositions related to STK1-targeted small molecules as antibiotic resistance breakers” (Ohio State Innovation Foundation, priority 2017, dated 2022).
Values after ≈ are worked out from the molar mass of the structure shown. Values joined by “and” are separate entries in the source; they are usually repeats but may differ in a detail not shown here. Identical values can stand only once. Like-named read-outs stand apart in the source and are kept apart here.

Legend:
[1] = tested on: S. aureus MW2ΔSTP1 mutant; test: E-test antibiotic susceptibility (MIC), Muller-Hinton agar; type: cell-based; conditions: Staphylococcus aureus
[2] = tested on: S. aureus MW2ΔSTK1 mutant; test: as above; type: cell-based; conditions: Staphylococcus aureus
S. aureus MW2-WT [3] = test: Time-to-kill assay (OD and CFU counts over 16 h), broth dilution; type: cell-based, Staphylococcus aureus; conditions: only 50 μM Inh2-B1, only 1.5 μM Ceftriaxone (1 μg/ml) or only 3 μM Cefotaxime (1 μg/ml), 16 h
Description: (§1) FIGS. 4A-F show. […] Optical Density and corresponding Colony forming units of (C and D) MW2-WT and (E and F) MW2ΔSTK1 cultures in the presence or absence 50 μM Inh2-B1, 1.51 μM (1 μg/ml) Ceftriaxone, 2.125 μM (1 μg/ml) Cefotaxime, and combination of Inh2-B1 plus Ceftriaxone, and Inh2-B1 plus Cefotaxime. The experiments were carried out as described in the Materials and Method section using Muller-Hinton broth and seeded with 4×10^6 CFUs of S. aureus MW2-Wild type or MW2ΔSTK1 strains per well. Each data points represent Mean±S.D. P values of significance (**=<0.01, ***=<0.001) were determined using the t-test with Welch's corrections. NS—Not significant.
(§2) Subsequently, the susceptibility of S. aureus MW2 strain to Ceftriaxone, Cefotaxime, Inh2, and Inh2-B1 was confirmed by the CLSI recommended serial dilution method using Muller Hinton broth. Minimum bactericidal activity (MBC) was measured using Muller-Hinton agar. Changes in the MBC of Ceftriaxone/Cefotaxime in the presence of serially diluted Inh2-B1 was determined in two steps. Initial screening was carried out using the Checkerboard method using Muller-Hinton agar (FIG. 15). […] Subsequent time to kill assays were carried out using 50 μM Inh2-B1 and Ceftriaxone. Cefotaxime (1 μg/ml) in a final volume of 250 μl using a sterile 96-well (U-bottom) microtiter plate over a period of 16 h at 37° C. under constant rotation (120 rpm). Optical density and corresponding CFU counts were measured at every two-hour interval up to 8 hours with a final overnight reading at the end of incubation period. CFU counts were measured using appropriate dilution of 10 μl of properly mixed samples at each time interval. All experiments were performed in three biological replicates and the statistical analysis of the results obtained at each time point was carried out by the non-parametric t-test with Welch's correction using GraphPad Prism 6 software.

S. aureus MW2ΔSTK1 = test: as above; type: cell-based, Staphylococcus aureus; conditions: in the presence of Ceftriaxone (1 μg/ml)
Description: as §1, §2

S. aureus MW2 wild-type [4] = test: Serial passage at suboptimal dose (10 generations), stk1 PCR and DNA sequencing; type: cell-based, Staphylococcus aureus; conditions: in the presence of 50 μM Inh2-B1
Description: (§3) Since the STK1 is not essential for bacterial survival and its absence results in retardation of growth, an end-point bactericidal assay was done, employing the Checkerboard titration method followed by a time-to-kill assay using the broth dilution method. The 96-well plate-based checkerboard titration assays were performed using the fixed number of CFUs of MW2 strain, and the survival of the bacteria was measured on solid agar plates as an end-point result. […] The cut-off value to designate clinical isolates of S. aureus for antibiotics, including Ceftriaxone (TX) and Cefotaxime (CT) as susceptible, is less than 4 μg/ml (i.e., <4.8 μM of TX, and <7 μM of CT). […] CFU counts of MW2-WT grown in the presence of various concentrations of Inh2-B1 were examined over a period of 16 h. […] Similarly, it was also determined CFU counts of MW2-WT and MW2ΔSTK1 strains each grown in the absence or the presence of 50 μM of Inh2-B1 and 1.5 μM Ceftriaxone (1 μg/ml) or […] Cefotaxime (1 μg/ml) for 16 h employing the broth dilution method. […] Further, to address whether MW2 or STK1 could become refractory to a potential combined therapy, the S. aureus MW2 wild-type strain was grown in the presence of suboptimal dose of Inh2-B1 alone and combination with Ceftriaxone and Cefotaxime (25 μM Inh2-B1 and 3 μM of Ceftriaxone or 3 μM Cefotaxime) for consecutive 10 generations.

S. aureus MW2 wild-type [5] = test: Checkerboard titration end-point bactericidal assay (MBC), Muller-Hinton agar; type: cell-based, Staphylococcus aureus; conditions: for MBC: Staphylococcus aureus, MW2WILDTYPE
Description: FIGS. 15A-15B show checkerboard assays for determining bactericidal assay. Serial two-fold dilutions of 2 mM of Inh2-B1 (MW=411.58 g/mol) and (A) 3 mM ceftriaxone (MW=669.7 g/mol) were made in two separate 96-well plates in vertical (B1-B12 to H1-H2 wells) and horizontal (A2-H2 to A12-H12 wells) directions respectively. Serially diluted Inh2-B1 (100 μL) in the individual well was then mixed with the 100 μL serially diluted ceftriaxone present in the corresponding wells. The resulting various combinations of Inh2-B1 (starting from 1 mM) and ceftriaxone (starting from 1.5 mM) or cefotaxime (2.1 mM) as well as serially diluted one Inh2-B1 (B1 to H1) and ceftriaxone (A2-A12) or cefotaxime (A2-A12) were then incorporated in Muller-Hinton mini agar plates (2 mL). The agar plates were then seeded and diluted S. aureus MW2-wild-type culture equivalent to approximately 23±3 CFU. This checkerboard assay was used to determine the ideal combination of lowest concentration of Inh2-B1 and ceftriaxone that kills 99.9% of the wild-type MW2.
as §3
as §2, with “interval.” for “interval. All experiments were performed in three biological replicates and the statistical analysis of the results obtained at each time point was carried out by the non-parametric t-test with Welch's correction using GraphPad Prism 6 software.”

S. aureus MW2-WT [6] = test: microbe, parasite or virus in culture; type: cell-based, Staphylococcus aureus; conditions: Staphylococcus aureus, MW2WT
[7] = tested on: cell wall hydrolase genes in S. aureus MW2-WT; test: qRT-PCR mRNA expression of cell wall hydrolase genes; type: cell-based, Staphylococcus aureus; conditions: treated MW2-WT vs untreated
Description: The late log phase-grown S. aureus strains MW2 wild-type, and isogenic ΔSTK1 and ΔSTP1 mutant strains, as well as S. aureus MW2 strain treated with 25 μM Inh2-B1 for 4 h, were subjected to lysostaphin treatment to obtain whole cell lysate. Total RNA from the resulting lysate was first extracted by TRIZOL™ (Invitrogen/Thermo) and treated with RNase-free DNaseI. High-quality total RNA (RIN>7.0, and 260/280 and 260/230 ratios >1.8) was then extracted by using RNA purification kit (Norgen, Canada) per manufacturer's instructions and confirmed by an Agilent 2100 Bioanalyzer (Agilent Technologies, Palo Alto, Calif.). The first-strand cDNA from the total RNA was generated, and relative mRNA concentration was quantitated using SYBR Green qRT-PCR master mix and specific primers, using a Light Cycler® 480 real-time PCR machine (Table 2). The results obtained for all samples (three biological replicates each in triplicates) were normalized to corresponding values of 16S rRNA. All results including relative fold-changes in the mRNA expression (mutant vs. wild-type or treated vs. nontreated) for individual genes were analyzed using Exor4 software (Roche Applied Science). Changes in expression ratios by more than 2-fold (up- or down-regulation) were considered as significant.

S. aureus STK1 / STKK1 = test: Solid-phase ATP affinity chromatography, elution of bound kinase by inhibitor, Western blot; type: binding; conditions: eluted with 50 μM inhibitor, anti-STK1 immunoblot
Description: (§4) An overnight culture of S. aureus MW2 strain was centrifuged, and the resulting bacterial pellet was resuspended in lysostaphin digestion buffer (50 mM Tris/HCl buffer, pH 7.5, containing 5 μg/ml DNAse/RNAse and protease inhibitor cocktail) in 1/10 the volume of the original culture volume. The latter was then subjected to lysostaphin treatment (15 U/ml). The lysostaphin digest was sonicated (5 sec pulse at every 10 sec for 10 min at 50% of 130 W, […]), and the debris free whole cell lysate was obtained after centrifugation (10.000×g, 10 min, 4° C.). […] The column was then washed with ten column volumes of binding buffer. Subsequently, the bound proteins were eluted with the 10-column volume of buffer containing 50 μM Inh-2 and Inh2-B1. S. aureus crude lysate, the last fraction of the column washing step, and eluted fractions were resolved by SDS-PAGE and electroblotted onto a PVDF membrane. […] A similar experiment was performed using S. pyogenes whole cell lysates obtained from phage lysin-digested S. pyogenes M1T1 strain using the anti-SP-STK antibody as described previously using to determine the specificity of the inhibitor for S. aureus STK1.

[8] = tested on: S. pyogenes SP-STK / SP-STKK; test: as above; type: binding; conditions: 50 μM inhibitor
Description: as §4

[9] = molecular target: S. aureus STKK1 (the soluble kinase domain of STK1, 280 aa) (Staphylococcus aureus, UniProt A0ABF7PGK0); test: In vitro kinase assay: inhibition of autophosphorylation of recombinant STKK1 (γ32P-ATP); type: biochemical; conditions: after 5 min pre-incubation
Description: For the present study, recombinant His-tag-STKK1 was created along with part of the adjacent juxta-membrane domain (1-280 aa) using the pET14b vector system and specific primers (Table-1 and Table-2) as described previously. The recombinant proteins were expressed in BL21 DE3 (pLysS) and purified using Ni^+2-NTA-affinity chromatography, dialyzed against 10 mM Tris/HCl, pH 7.5, and stored as 10% glycerol stock (500 μg/ml) at −20° C. as described previously. In vitro kinase assays were performed using 2 μg STKK1 in the presence of 1 μCi γ^32P-ATP (specific activity 3000 Ci/mMol, PerkinElmer) at 30° C. for 45 min in a final volume of 30 μl phosphorylation buffer (50 mM Tris/HCl, pH7.5, 1 mM dithiothreitol, 5 mM MgCl2, and/or 5 mM MnCl2). The inhibition of autophosphorylation of STKK1 was carried out using this assay in the presence and absence of (50 μM) individual members of the 32 prescreened small molecule compound library. Phosphorylated proteins were separated by SDS-PAGE and subsequently identified by using Coomassie stain and autoradiography. The individual phosphorylated protein bands were then excised and subjected to radioactive counting using beta-scintillation counter for quantitative analysis. Experiments were repeated at least three times for statistical analysis.

S. aureus MW2 = test: Broth dilution susceptibility / growth inhibition assay, Muller Hinton broth; type: cell-based, Staphylococcus aureus; conditions: Staphylococcus aureus
Description: as §2

S. pyogenes SP-STK = test: In vitro autophosphorylation / kinase activity of SP-STK; type: biochemical; conditions: at 116 μM

S. aureus STKK1 (the soluble kinase domain of STK1, 280 aa), sequence (A0ABF7PGK0 entry or part of it): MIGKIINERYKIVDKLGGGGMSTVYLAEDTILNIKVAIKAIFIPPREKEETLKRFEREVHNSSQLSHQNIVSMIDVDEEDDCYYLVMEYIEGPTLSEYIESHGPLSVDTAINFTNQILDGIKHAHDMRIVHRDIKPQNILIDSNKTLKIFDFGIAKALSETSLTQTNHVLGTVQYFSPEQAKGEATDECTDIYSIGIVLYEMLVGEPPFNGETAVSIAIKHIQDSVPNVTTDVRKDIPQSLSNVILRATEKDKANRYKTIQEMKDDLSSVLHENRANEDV

`CO/N=C(\C(=O)N[C@@H]1C(=O)N2C(C(=O)O)=C(CSc3nc(=O)c(=O)[nH]n3C)CS[C@H]12)c1csc(N)n1` [Ceftriaxone] was tested, and the MIC [1] was over 100 µg/mL, the MIC [2] was 4 µg/mL (≈ 7.21 µM) and the “growth pattern of the wild-type, single agent” value (S. aureus MW2-WT [3]) was “remained unaltered”. The “growth of MW2ΔSTK1” value (S. aureus MW2ΔSTK1) was “reduced significantly”, the “bactericidal activity against the passaged strain” value (S. aureus MW2 wild-type [4]) was “remained intact” and the MBC (S. aureus MW2 wild-type [5]; agent alone, MW2, read-out: Minimum bactericidal concentration (MBC)) was 151 µM and 100 µg/mL. The MBC (S. aureus MW2 wild-type [5]; in the presence of 50 μM of Inh2-B1, read-out: MBC for MW2 in the presence of Inh2-B1) was 0.59 µM and 0.39 µg/mL, the “concentration up to which growth of MW2 was seen” value (S. aureus MW2 wild-type [5]; agent alone, further analysis) was 125 µM and the “concentration of wells with ≥1 CFU of wild-type MW2” value (S. aureus MW2 wild-type [5]; checkerboard, agent alone) was at most 75.00 µM. For the same molecule, the “fold reduction of MBC” value (S. aureus MW2 wild-type [5]; in the presence of 50 μM of Inh2-B1 vs antibiotic alone) was 256 fold and the MIC (S. aureus MW2-WT [6]) was over 100 µg/mL.

For `Cc1ccc(NC(=O)c2sc(=S)n3c2[nH]c(=O)c2ccccc23)c(C)c1` [Inh2, N-(2,4-Dimethylphenyl)-5-oxo-1-thioxo-4,5-dihydro[1,3]thiazolo[3,4-a]quinazoline-3-carboxamide], the “expression of cell wall hydrolase-encoding genes” value [7] was “down-regulation of cell wall hydrolase-encoding genes”, the “elution of STK1 bound to ATP-column, whole cell lysate of S. aureus MW2” value (S. aureus STK1 / STKK1) was “presence of STK1” and the “elution of SP-STK bound to ATP-column, S. pyogenes whole cell lysate” value [8] was “did not elute”. The IC50 [9] was 24.5 µM, the IC50 (S. aureus MW2; MW2, read-out: IC50 concentration for MW2) was 12 µM and the MIC (S. aureus MW2; MW2, read-out: minimum inhibitory concentration) was 48 µM. The “inhibition of autophosphorylation of S. pyogenes SP-STK” value (S. pyogenes SP-STK) was “did not inhibit autophosphorylation”.
